{
  "source": "patent US20240240189A1",
  "about": "“CANCER TREATMENT BY TARGETING PROTEINS OR INTERACTIONS OF EPHRINB-RGS3-KIF20A-SEPT7 AXIS” (CITY OF HOPE, priority 2021, published 2024)",
  "key": {"KIF20A [1]": {"tested_on": "KIF20A", "assay": "Western blot of KIF20A in Daoy clones with Tet-on shKIF20A726", "assay_type": "cell-based, human", "settings": "three Daoy clones, doxycycline induction of Tet-on shKIF20A726", "experimental": "Western Blot: Daoy cell clones stably integrated with Tet-on shKIF20A726 were cultured with or without Doxycycline induction for 3 days. These Daoy cells were washed with PBS, lysed with 2×SDS loading buffer and boiled for 5 minutes. Denatured proteins were resolved by SDS-PAGE and transferred to a PVDF membrane for Western blot detection by KIF20A (L13) antibody (1:500) and HRP-conjugated Donkey anti-Goat second antibody (1:2500) with chemiluminescent substrate (ThermoFisher Scientific, Cat: 34095).\n(§1) Generation of Daoy cell lines with stably integrated Tet-on inducible shRNA expression system: Daoy cells were infected with lentivirus of Tet-on inducible human KIF20A shRNA-726 and GFP-Luciferase prepared from Tet-pLKO-hushKIF20A726 plasmid and Hiv7CMVGFP-IRES-Luciferase plasmid, respectively. The transduced Daoy cells were selected for stable single clones with Puromycin (1 μg/ml, Sigma-Aldrich) and GFP fluorescence signal in DMEM (Invitrogen) with 10% fetal bovine serum. Single clones were picked up by glass cloning cylinders (Sigma-Aldrich) in 10 cm plate. Three clones were obtained and tested for growth ability and doxycycline (0.5 μg/ml) inducibility using growth curve assay, western blots and luciferase reporter assay system. Clone #2 was selected for further use."}, "KIF20A [2]": {"tested_on": "KIF20A", "assay": "KIF20A knockdown in GISC017 cells by lentiviral shRNA", "assay_type": "cell-based, human", "settings": "constitutive lentiviral expression, vs scrambled shRNA", "description": "(§2) To further investigate the relevance of KIF20A in human brain tumors, inhibition of KIF20A in patient-derived GBM-initiating/stem cells (GISCs) was examined. As the ERKS axis functions in different types of brain tumor-initiating/stem cells, data obtained from study of GISCs would be applicable to other brain tumor cell types. Multiple lines of patient-derived GISCs were obtained from Dr. Christine Brown. These low passaged GISCs could be expanded in cultures and could engraft in NSG mice^43, 44. FIG. 11 summarizes the results of testing KIF20A in one GISC line (GISC017) by constitutive expression of a control scrambled shRNA or shKIF20A726 (shRNA targeting hKIF20A) in pNUT vector-based lentiviral expression system. […] In the above cell cycle exit analysis, co-staining of differentiation markers (e.g. βlll-tubulin, DCX, or NeuN) was performed, however, these markers were detected in EdU^+Ki67^− (cells having left the cell cycle) but also in some EdU^+Ki67^+ (cells staying in the cell cycle) cells, which might reflect a technical artefact observed with progenitor/stem cells in culture. […]"}, "human KIF20A transcript": {"tested_on": "human KIF20A transcript", "assay": "shRNA screening by dual luciferase reporter assay", "assay_type": "cell-based", "settings": "transfected HEK293 cells, shRNA in pNUT vector, cDNA target in psi-CHECK, 48 hours", "experimental": "FIGS. 10a-10c show generation of human KIF20A shRNAs and stable Daoy cell lines. […] Candidate shRNAs in pNUT vector were first screened with a cDNA target cloned in psi-CHECK vector in transfected HEK293 cells, using a dual luciferase reporter assay and their cDNA target in psi-CHECK Vector (Promega). Six candidate shKIF20As were tested with this assay. […] Data are mean±S.D. **P<0.01, ***P<0.001 (two-way ANOVA).\nDNA Constructs, Lentivirus Production: Lentiviral transfer plasmids used in this study include: Hiv7CMV-Cre-myc-2A-GFP (Addgene #117148), Hiv7CMV-GFP, Hiv7CMV-GFP-IRES-Luciferase, as well as Tet-on inducible shRNA plasmids Tet-pLKO-hushKIF20A726 or Tet-pLKO-hushKIF20A181-Puro (shRNA sequences were cloned into pLKO-Tet-On plasmid, Addgene #21915 at Agel/EcoRI sites). […]\nshRNA design and screening: Potential shRNA sequences were selected using web-based design tool (rnaidesigner.thermofisher.com/rnaiexpress/design.do). shRNAs were expressed under the control of a mouse U6 promoter in pNUTs vector which additionally contains a ubiquitin promoter-EGFP expression cassette. Candidate shRNAs in pNUTs and cDNA target in psi-CHECK were co-transfected into HEK293 cells in triplicates; 48 hours later, the firefly and Renilla Luciferase values were determined with Promega's Dual-Luciferase® Reporter Assay System (Promega, E1910). […]"}, "GISC017 cells [3]": {"tested_on": "GISC017 cells", "assay": "Cell cycle exit analysis (EdU/Ki67) in GISC017 cells", "assay_type": "cell-based, human", "settings": "shRNA expression vs scrambled shRNA", "description": "as §2"}, "Daoy human MB cells": {"tested_on": "Daoy human MB cells", "assay": "Growth assay of Daoy cells", "assay_type": "cell-based", "settings": "three Daoy clones, inducible expression of shKIF20A726 (+Dox)", "experimental": "as §1, with “plate.” for “plate. Three clones were obtained and tested for growth ability and doxycycline (0.5 μg/ml) inducibility using growth curve assay, western blots and luciferase reporter assay system. Clone #2 was selected for further use.”\nGrowth Assay of tumor cells: Mouse MB cell lines, or Daoy clones stably integrated with Tet-on inducible human KIF20A shRNA-726, or Wild Type Daoy cells, were seeded into multiple wells of 24 well plates (2×10^4 or 1×10^4 cells per well). Cells in quadruplicate were then dissociated and counted using a hemocytometer at consecutive days after initial plating."}, "GISC017 cells [4]": {"tested_on": "GISC017 cells", "assay": "Flow cytometry-based cell cycle analysis (4N DNA content) of GISC017 cells", "design": "species or system human", "settings": "vs scrambled shRNA", "description": "as §2"}},
  "note": "“Also recorded” adds a separate entry of the source.",
  "data": [
    {"substance": "5′-GAGGAGTGTCTACATCGAA-TTCAAGAGA-TTCGATGTAGACACTCCTC-3′ (GAGGAGTGTCTACATCGAATTCAAGAGATTCGATGTAGACACTCCTC; hairpin, further chemistry not given here) [shKIF20A726, shRNA targeting human KIF20A transcript]", "values": [
      {"measurement": "KIF20A expression (Western blot)", "setting": "KIF20A [1]", "value": "significant knockdown of KIF20A expression in all three cell clones; also recorded: reduction of KIF20A expression"},
      {"measurement": "KIF20A level", "setting": "KIF20A [2]", "value": "strongly knocked down KIF20A level; also recorded: significant knockdown of KIF20A expression"},
      {"measurement": "inhibition of expression of the human KIF20A transcript (luciferase assay)", "setting": "human KIF20A transcript", "value": "significantly inhibit expression of the human KIF20A transcript"},
      {"measurement": "cell cycle exit (EdU+Ki67− cells)", "setting": "GISC017 cells [3]", "value": "more cells exiting the cell cycle; also recorded: increase of GFP+EdU+Ki67− cells"},
      {"measurement": "cell proliferation", "setting": "Daoy human MB cells", "value": "significantly inhibit the proliferation of all three clones; also recorded: inhibit cell proliferation"},
      {"measurement": "4N DNA contents / cytokinesis", "setting": "GISC017 cells [4]", "value": "comparable; also recorded: did not cause obvious change in cytokinesis"}
    ]}
  ]
}
